Laboratory results from the NIST ThermoML archive (doi:10.1016/j.fluid.2008.02.013).
Values joined by “and” are separate entries in the source; they are usually repeats but may differ in a detail not shown here. Identical values can stand only once. Numbers after ± are expanded uncertainties.

How the values were obtained:
[1] = Molar enthalpy of transition or fusion; settings: Crystal; DSC
[2] = Crystal; DTA

Molar enthalpy of transition or fusion [1]: 12.4 kcal/mol and 12.8 kcal/mol and 13.2 kcal/mol
SMILES: C=C(C)[C@@H]1CC[C@]2(CO)CC[C@]3(C)[C@H](CC[C@@H]4[C@@]5(C)CC[C@H](O)C(C)(C)[C@@H]5CC[C@]43C)[C@@H]12 [betulin]
Normal melting temperature [2]: 257.5 ± 2 °C and 255.0 ± 2 °C and 254.8 ± 2 °C
